# Test results taken from patent publication US20250025451A1, “TREATMENT OF CANCER WITH KDM4 INHIBITORS” (Celgene Corporation, priority 2021, published 2025).
# Read-outs that look alike come from different tables or passages of the source.
# Columns and labels:
# [1] = test system: erythroid hematopoietic progenitor cells derived from human bone marrow; assay: erythroid colony formation of hematopoietic progenitor cells; assay type: cell-based; details: 336 h, human bone marrow progenitor cells
# Description: (§1) Compound 1 was evaluated for its effects on proliferation of erythroid and myeloid hematopoietic progenitor cells derived from human bone marrow at […] Technologies Inc. (Vancouver, BC, Canada).
# (§2) Cells were thawed rapidly at 37° C. into DNAse I and then diluted in 10 mL of Iscove's Modified Dulbecco's medium containing 2% fetal bovine serum (IMDM+2% FBS) and washed by centrifugation (1200 rpm for 10 minutes at room temperature). The supernatant was discarded and the cell pellet resuspended in a known volume of IMDM+2% FBS. A nucleated cell count (3% glacial acetic acid) and viability assessment (trypan blue exclusive test) were performed.
# (§3) Compound 1 and positive control (panobinostat) were diluted in DMSO and tested at concentrations ranging from 0.002 μM to 5 μM in final media. These dilutions provided the appropriate final test concentrations required for the test and control articles ([…], and 0.002 μM).
# (§4) Test and control articles were incubated with human bone marrow hematopoietic progenitor cells. After 14 days, cell colonies were assessed.
# (§5) To calculate the concentration of 50% and 90% inhibition of colony growth (IC50 and IC90) for each test article, a dose response curve was generated plotting the log of the test article concentration versus the percentage of control colony growth using GraphPad Prism. […] The IC50 and IC90 values for both test and control articles were derived from an interpolation of the curve fit. In cases where the IC50/90 value reported by GraphPad Prism is a value beyond the range of concentrations that were actually tested, if this value is more than 4 times the highest concentration tested, or where GraphPad Prism cannot calculate an IC50/90 value, notations of >5 μM (for test article compound 1) are used.
# [2] = test system: myeloid hematopoietic progenitor cells derived from human bone marrow; assay: myeloid colony formation of hematopoietic progenitor cells; assay type: cell-based; details: 336 h, human bone marrow progenitor cells
# Description: as §1, §2, §3, §4, §5
structure (smiles),measurement,setting,value
"Cc1[nH]c2ccccc2c1CCNCc1ccc(/C=C/C(=O)NO)cc1 [Panobinostat, reference compound]",IC50,"[1]; 14 days, read-out: IC50, inhibition of erythroid colony formation",< 10 nM
same,IC90,[1]; colony growth after 14 days,7.5 ng/mL
same,IC50,"[1]; colony growth after 14 days, read-out: Erythroid IC50",6.4 ng/mL
same,IC50,"[2]; 14 days, read-out: IC50, inhibition of myeloid colony formation",< 10 nM
same,IC90,[2]; colony growth after 14 days,8.1 ng/mL
same,IC50,"[2]; colony growth after 14 days, read-out: Myeloid IC50",7.4 ng/mL
